Key:
Type in all cases: cell-based
Parental (Ba/F3) = assay: Ba/F3 cell proliferation inhibition; details: BaF3; 72 hours, Cell Counting Kit-8
How it was run: (§1)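 Parental and T315I-Bcr-Abl Ba/F3 cells, 1×10^4 per well, exposed 72 h at 37 °C to nine 3-fold dilutions, final 0 to 10 μM. Viability by CCK-8 after 2 h, absorbance 450 nm; GI50 fitted from percent of vehicle-treated cells.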

T315I-Bcr-Abl (Ba/F3) = assay: Ba/F3 cell proliferation inhibition; details: BaF3; 72 hours, Cell Counting Kit-8
How it was run: as §1

T315I-KOPM28 cells = assay: human CML cell proliferation inhibition; details: 72 hours, Cell Counting Kit-8
How it was run: (§2)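 Growth inhibition over 72 h at 37 °C in Bcr-Abl (TCCS, KOPM28) or T315I-Bcr-Abl (T315I-TCCS, T315I-KOPM28) human CML cells, 1×10^4 cells/well. Nine 5-fold dilutions gave final 0 to 10 μM, with DMSO as control. GI50 was derived from CCK-8 A450 as percent of vehicle.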

KOPM28 cells = assay: human CML cell proliferation inhibition; details: 72 hours, Cell Counting Kit-8
How it was run: as §2

T315I-TCCS cells = assay: human CML cell proliferation inhibition; details: 72 hours, Cell Counting Kit-8
How it was run: as §2

TCCS cells = assay: human CML cell proliferation inhibition; details: 72 hours, Cell Counting Kit-8
How it was run: as §2

Row | GI50 (T315I-Bcr-Abl (Ba/F3)) [nM] | Compound | GI50 (Parental (Ba/F3)) [nM] | GI50 (T315I-KOPM28 cells) [nM] | GI50 (KOPM28 cells) [nM] | GI50 (T315I-TCCS cells) [nM] | GI50 (TCCS cells) [nM]
1 | 50 to 500 | Cc1cc(F)c(C(=O)Nc2cc(N3CCN(C)CC3)cc(C(F)(F)F)c2)cc1C#Cc1cnc2c(Nc3cnn(C)c3)cccn12 [Example 47, 2-fluoro-4-methyl-5-((8-((1-methyl-1H-pyrazol-4-yl)amino)imidazo[1,2-a]pyridin-3-yl)ethynyl)-N-(3-(4-methylpiperazin-1-yl)-5-(trifluoromethyl)phenyl)benzamide] | 500 to 5000 | 100 | < 10 | 100 | < 10
2 | 50 to 500 | Cc1cc(F)c(C(=O)Nc2cc(N3CCN(C)C(=O)C3)cc(C(F)(F)F)c2)cc1C#Cc1cnc2c(Nc3cnn(C)c3)cccn12 [Example 49, 2-fluoro-4-methyl-5-((8-((1-methyl-1H-pyrazol-4-yl)amino)imidazo[1,2-a]pyridin-3-yl)ethynyl)-N-(3-(4-methyl-3-oxopiperazin-1-yl)-5-(trifluoromethyl)phenyl)benzamide] | 500 to 5000 | 100 | < 10 | < 10 | < 10
3 | 50 to 500 | Cc1cc(F)c(C(=O)Nc2cc(OCCN(C)C)cc(C(F)(F)F)c2)cc1C#Cc1cnc2c(Nc3cnn(C)c3)cccn12 [Example 50, N-(3-(2-(dimethylamino)ethoxy)-5-(trifluoromethyl)phenyl)-2-fluoro-4-methyl-5-((8-((1-methyl-1H-pyrazol-4-yl)amino)imidazo[1,2-a]pyridin-3-yl)ethynyl)benzamide] | > 5000 | > 100 | < 10 | 100 | < 10
4 | 50 to 500 | Cc1cc(F)c(C(=O)Nc2cc(-c3cnn(C)c3)cc(C(F)(F)F)c2)cc1C#Cc1cnc2c(Nc3cnn(C)c3)cccn12 [Example 54, 2-fluoro-4-methyl-N-(3-(1-methyl-1H-pyrazol-4-yl)-5-(trifluoromethyl)phenyl)-5-((8-((1-methyl-1H-pyrazol-4-yl)amino)imidazo[1,2-a]pyridin-3-yl)ethynyl)benzamide] | > 5000 | > 100 | 100 | 100 | < 10
5 | < 50 | Cc1cc(F)c(C(=O)Nc2ccc(CN3CCN(C)CC3)c(C(F)(F)F)c2)cc1C#Cc1cnc2c(Nc3cnn(C)c3)cccn12 [Example 55, 2-fluoro-4-methyl-5-((8-((1-methyl-1H-pyrazol-4-yl)amino)imidazo[1,2-a]pyridin-3-yl)ethynyl)-N-(4-((4-methylpiperazin-1-yl)methyl)-3-(trifluoromethyl)phenyl)benzamide] | 500 to 5000 | < 10 | < 10 | < 10 | < 10
6 | < 50 | Cc1cc(F)c(C(=O)Nc2ccc(CN3CCCN(C)CC3)c(C(F)(F)F)c2)cc1C#Cc1cnc2c(Nc3cnn(C)c3)cccn12 [Example 61, 2-fluoro-4-methyl-N-(4-((4-methyl-1,4-diazepan-1-yl)methyl)-3-(trifluoromethyl)phenyl)-5-((8-((1-methyl-1H-pyrazol-4-yl)amino)imidazo[1,2-a]pyridin-3-yl)ethynyl)benzamide] | 500 to 5000 | < 10 | < 10 | 100 | < 10

Further lines, the compound ahead of its results:

Row | Compound | GI50 (T315I-Bcr-Abl (Ba/F3)) [nM] | GI50 (Parental (Ba/F3)) [nM] | GI50 (T315I-KOPM28 cells) [nM] | GI50 (KOPM28 cells) [nM] | GI50 (T315I-TCCS cells) [nM] | GI50 (TCCS cells) [nM]
7 | Cc1cc(F)c(C(=O)Nc2ccc(CN3CCN(S(C)(=O)=O)CC3)c(C(C)(C)C#N)c2)cc1C#Cc1cnc2c(Nc3cnn(C)c3)cccn12 [Example 45, N-(3-(2-cyanopropan-2-yl)-4-((4-(methylsulfonyl)piperazin-1-yl)methyl)phenyl)-2-fluoro-4-methyl-5-((8-((1-methyl-1H-pyrazol-4-yl)amino)imidazo[1,2-a]pyridin-3-yl)ethynyl)benzamide] | 500 to 5000 | > 5000 | > 100 | < 10 | > 100 | < 10
8 | Cc1cc(F)c(C(=O)Nc2ccc(Cn3ccnc3)c(C(C)(C)C#N)c2)cc1C#Cc1cnc2c(Nc3cnn(C)c3)cccn12 [Example 46, N-(4-((1H-imidazol-1-yl)methyl)-3-(2-cyanopropan-2-yl)phenyl)-2-fluoro-4-methyl-5-((8-((1-methyl-1H-pyrazol-4-yl)amino)imidazo[1,2-a]pyridin-3-yl)ethynyl)benzamide] | 50 to 500 | > 5000 | > 100 | < 10 | > 100 | < 10
9 | Cc1cc(F)c(C(=O)Nc2cc(N(C)CCN(C)C)cc(C(F)(F)F)c2)cc1C#Cc1cnc2c(Nc3cnn(C)c3)cccn12 [Example 48, N-(3-((2-(dimethylamino)ethyl)(methyl)amino)-5-(trifluoromethyl)phenyl)-2-fluoro-4-methyl-5-((8-((1-methyl-1H-pyrazol-4-yl)amino)imidazo[1,2-a]pyridin-3-yl)ethynyl)benzamide] | 50 to 500 | > 5000 | > 100 | < 10 | 100 | < 10
10 | Cc1cc(F)c(C(=O)Nc2cc(OCCCN(C)C)cc(C(F)(F)F)c2)cc1C#Cc1cnc2c(Nc3cnn(C)c3)cccn12 [Example 51, N-(3-(3-(dimethylamino)propoxy)-5-(trifluoromethyl)phenyl)-2-fluoro-4-methyl-5-((8-((1-methyl-1H-pyrazol-4-yl)amino)imidazo[1,2-a]pyridin-3-yl)ethynyl)benzamide] | 50 to 500 | > 5000 | 100 | < 10 | 100 | 100
11 | Cc1cc(F)c(C(=O)Nc2cc(-c3ccncc3)cc(C(F)(F)F)c2)cc1C#Cc1cnc2c(Nc3cnn(C)c3)cccn12 [Example 52, 2-fluoro-4-methyl-5-((8-((1-methyl-1H-pyrazol-4-yl)amino)imidazo[1,2-a]pyridin-3-yl)ethynyl)-N-(3-(pyridin-4-yl)-5-(trifluoromethyl)phenyl)benzamide] | 50 to 500 | > 5000 | 100 | < 10 | 100 | < 10
12 | Cc1cc(F)c(C(=O)Nc2cc(-c3cccnc3)cc(C(F)(F)F)c2)cc1C#Cc1cnc2c(Nc3cnn(C)c3)cccn12 [Example 53, 2-fluoro-4-methyl-5-((8-((1-methyl-1H-pyrazol-4-yl)amino)imidazo[1,2-a]pyridin-3-yl)ethynyl)-N-(3-(pyridin-3-yl)-5-(trifluoromethyl)phenyl)benzamide] | 50 to 500 | > 5000 | > 100 | < 10 | 100 | < 10
13 | Cc1cc(F)c(C(=O)Nc2ccc(CN3CCN(CCO)CC3)c(C(F)(F)F)c2)cc1C#Cc1cnc2c(Nc3cnn(C)c3)cccn12 [Example 56, 2-fluoro-N-(4-((4-(2-hydroxyethyl)piperazin-1-yl)methyl)-3-(trifluoromethyl)phenyl)-4-methyl-5-((8-((1-methyl-1H-pyrazol-4-yl)amino)imidazo[1,2-a]pyridin-3-yl)ethynyl)benzamide] | < 50 | 500 to 5000 | < 10 | < 10 | < 10 | < 10
14 | Cc1cc(F)c(C(=O)Nc2ccc(CN3CCOCC3)c(C(F)(F)F)c2)cc1C#Cc1cnc2c(Nc3cnn(C)c3)cccn12 [Example 57, 2-fluoro-4-methyl-5-((8-((1-methyl-1H-pyrazol-4-yl)amino)imidazo[1,2-a]pyridin-3-yl)ethynyl)-N-(4-(morpholinomethyl)-3-(trifluoromethyl)phenyl)benzamide] | 50 to 500 | > 5000 | > 100 | < 10 | 100 | 100
15 | Cc1cc(F)c(C(=O)Nc2ccc(CN3CCN(C)C(=O)C3)c(C(F)(F)F)c2)cc1C#Cc1cnc2c(Nc3cnn(C)c3)cccn12 [Example 58, 2-fluoro-4-methyl-5-((8-((1-methyl-1H-pyrazol-4-yl)amino)imidazo[1,2-a]pyridin-3-yl)ethynyl)-N-(4-((4-methyl-3-oxopiperazin-1-yl)methyl)-3-(trifluoromethyl)phenyl)benzamide] | < 50 | > 5000 | 100 | < 10 | 100 | < 10
16 | Cc1cc(F)c(C(=O)Nc2ccc(CN3CCC(N(C)C)C3)c(C(F)(F)F)c2)cc1C#Cc1cnc2c(Nc3cnn(C)c3)cccn12 (stereo not drawn) [Example 59, N-(4-((3-(dimethylamino)pyrrolidine-1-yl)methyl)-3-(trifluoromethyl)phenyl)-2-fluoro-4-methyl-5-((8-((1-methyl-1H-pyrazol-4-yl)amino)imidazo[1,2-a]pyridin-3-yl)ethynyl)benzamide] | 50 to 500 | > 5000 | > 100 | < 10 | 100 | < 10
17 | Cc1cc(F)c(C(=O)Nc2ccc(CN3CCN(S(C)(=O)=O)CC3)c(C(F)(F)F)c2)cc1C#Cc1cnc2c(Nc3cnn(C)c3)cccn12 [Example 60, 2-fluoro-4-methyl-5-((8-((1-methyl-1H-pyrazol-4-yl)amino)imidazo[1,2-a]pyridin-3-yl)ethynyl)-N-(4-((4-(methylsulfonyl)piperazin-1-yl)methyl)-3-(trifluoromethyl)phenyl)benzamide] | < 50 | 500 to 5000 | > 100 | 100 | 100 | < 10

Reference: patent US12673945B2, “3-((8-((1H-pyrazol-4-yl)amino)imidazo[1,2-a]pyridin-3-yl)ethinyl)-n-phenylbenzamide derivative, method for preparing same, and pharmaceutical composition containing same as active ingredient for prevention or treatment of cancer” (DAEGU-GYEONGBUK MEDICAL INNOVATION FOUNDATION, priority 2020, dated 2026)
